Measurements: US9757317B2, “Cosmetic compositions and methods for inhibiting melanin synthesis” (The Procter & Gamble Company, priority 2014, dated 2017)
Where a name gives a salt, the structure may show the parent alone.

Test system: B16-F1 mouse melanoma cells
Experiment: Melanin Synthesis Assay
Format: cell-based
Method: A B16-F1 mouse melanoma cell line may be employed as an assay to measure melanin synthesis. The B16-F1 cells may be obtained from American Tissue Culture Collection, Virginia, USA. The cell culture medium that may be used in the assay may comprise 500 mL of Dulbecco's Modified Eagle's Medium (DMEM), 50 mL Fetal Bovine Serum (FBS), and 5 mL of penicillin-streptomycin liquid. B16-F1 cells that are cultured in this medium and grown to greater than 90% confluency synthesize melanin. While not intending to be bound by any theory, it is hypothesized that melanin synthesis is stimulated by the culture medium and/or stress induced by growth to a high confluency. The DMEM and FBS can be obtained from American Tissue Culture Collection and the penicillin-streptomycin liquid can be obtained from Invitrogen, Inc., California, USA. Equipment used in the assay include a CO2 incubator, such as a Form a Series Model 3110 by Therma Scientific, Massachusetts, USA; a hemocytometer, such as a Bright Line model by Hauser Scientific, Pennsylvania, USA; and a UV-Visible Spectrum Plate Reader, such as a SpectraMax250 from Molecular Devices, California, USA. The assay steps may include:
Day 0—Cell Growth: Warm the cell culture medium to 37° C. and place 29 mL into a T-150 flask. Add approximately 1×10^6 of B16-F1 passage 1 mouse cells to the T-150 flask and incubate for 3 days at 37° C., 5% CO2, 90% relative humidity, until ˜80% confluency;
Day 3—Initiate a 96 Well Plate: At day 3, trypsinize the cells from the T-150 flask and determine the concentration of cells using a hemocytometer. Initiate a 96 well plate with 2,500 cells per well in 100 microliters of cell culture medium. Incubate the plate at 37° C., 5% CO2, 90% relative humidity for about 2 days until at least 20% to 40% confluency;
Day 5—Decant the cell culture medium from the plate and replace with fresh culture medium (100 uL per well). Add 1 microliter of [test compound] diluted in a [water or DSMO] solvent. Multiple dilution ratios may be tested in order to generate a dose response curve, wherein preferably three wells are treated with each dilution ratio. Controls comprise wells having the cell culture medium, B16-F1 cells, and the solvent (control #1); wells comprising the cell culture medium and the solvent (control #2); and optionally wells comprising the cell culture medium, solvent and [test compound] when necessary to control for the [test compound] background color (control #3);
Day 7—Measure Melanin Production: Cells should have a confluency greater than ˜90%. […] Add 100 microliters of a 0.75% sodium hydroxide solution to each well. Read the 96 well plate using the UV-Vis Plate Reader at 410 nm to optically measure the amount of melanin produced between wells that are treated with [test compound] and control wells that are not treated with a test compound. Wells in which melanin is produced typically appear brownish in color. Wells in which little melanin is produced typically appear clear to light purple in color. Percentage of melanin synthesis inhibition is calculated by the following equation: […]
Where OD410 is the Optical Density at 410 nm as measured by the UV-Vis Spectrum Plate Reader.
When Control #3 is used, the formula for percentage melanin synthesis inhibition is: […]
Using generally the assay outlined above, melanin synthesis in treated B16-F1 cells was inhibited as compared to control cells as shown in Table 1.

[1] = test material (0.002 to 0.5%) combined with Bis/HD/Nia
[2] = test material (0.002 to 0.5%) combined with Bis/UP/Nia

Row | SMILES | Average Melanin % Inhibition [1] [%] | Average Melanin % Inhibition [2] [%] | also measured
1 | CCCCCCCCCCCCCCCCCC(=O)OCC(O)CO (racemic) [1-Stearoyl rac-Glycerol, 1-Stearoyl-rac-glycerol] | – | – | Average Melanin % Inhibition (test material (0.002 to 0.5%) combined with Bis/HD/UP/Nia): 38%
2 | CCCCCCCCCCC(O)CCCC (stereo not shown) [5-Pentadecanol] | 46 | – | –
3 | CCCCC(CC)COC(=O)CCCCC(=O)OCC(CC)CCCC (stereo not shown) [Bis (2-ethylhexyl) Adipate, Bis (2-ethylhexyl) adipate] | – | 42 | –
4 | CCCCC(CC)COC(=O)/C=C\C(=O)OCC(CC)CCCC (stereo not shown) [Bis (2-ethylhexyl) Maleate, Bis (2-ethylhexyl) maleate] | 32 | 45 | –
5 | CCCCC(CC)COC(=O)CCCCCCCCC(=O)OCC(CC)CCCC (stereo not shown) [Bis (2-ethylhexyl) Sebacate, Bis (2-ethylhexyl) sebacate] | 79 | 88 | –
6 | CCCCCCCCCCCCCCCC(=O)OCC [Ethyl Palmitate, Ethyl palmitate] | 82 | 84 | –
7 | CC(C)=CCC[C@](C)(O)[C@@H]1CC=C(C)CC1 [Sample 1, bisabolol] | – | – | Average Melanin % Inhibition (Table 1, B16-F1 cells, 0.1% Bis, 0.00056% HD, 0.00011% UP, 0.00056% Nia where included): 2.2%
8 | CCCCCCCCCCCCCCCCCCOCC(O)CO (stereo not shown) [Sample 8, batyl alcohol] | – | – | Average Melanin % Inhibition (Table 2, 0.03% Bat, 0.003% Bis, 0.0005% HD, 0.0001% UP, 0.0005% Nia where included): 7%
9 | CCCCCCCCCCCCCCCCCCO [Stearyl Alcohol, Stearyl alcohol] | 60 | 73 | –
